# Reference: patent US9708312B2, “Dihydropyrimidinoisoquinolinones and pharmaceutical compositions thereof for the treatment of inflammatory disorders (GPR84 antagonists)” (GALAPAGOS NV, priority 2012, dated 2017)
# pIC50: −log10 of the molar value.
# Biological target: T1, GPR84 (Homo sapiens, UniProt Q9NQS5)
# T1 construct: expressed in transfected cells
# Test: GPR84 [35S]GTPγS binding assay, HEPES buffer
# Assay type: biochemical
# Conditions: 3,3′ di indolylmethane at EC80, membranes from stable cell line over expressing GPR84
# Procedure: 1.1. Cell Based Assay: GTp-γ S Binding Assay.
# The following assay can be used for determination of GPR84 activation.
# The assay is performed in a 96 well plate where the following reagents are added. […] In a last step, 30 μL of a mixture consisting of membranes-GTPγS-SpA beads is added [mixture consists of 20 μg/well membranes derived from stable cell line over expressing GPR84 (membranes are pre-incubated with 0.1 μM GDP for 15 min at 4° C.), 0.1 nM [^35S]GTPγS (Perkin Elmer, NEG030) and 0.5 mg/well PVT-WGA SpA beads (Perkin Elmer, RPNQ0001)]. All components are diluted in assay buffer containing 20 mM HEPES pH 7.4; 5 mM MgCl2; 250 mM NaCl; 0.05% BSA; 75 ug/mL saponin Reactions are incubated for 90 min at room temperature followed by centrifugation at 2000 rpm during 15 min. Plates are read on a Topcount reader (Perkin Elmer) immediately after centrifugation (readout time, 1 min/well).
# T1 sequence (Q9NQS5 whole entry): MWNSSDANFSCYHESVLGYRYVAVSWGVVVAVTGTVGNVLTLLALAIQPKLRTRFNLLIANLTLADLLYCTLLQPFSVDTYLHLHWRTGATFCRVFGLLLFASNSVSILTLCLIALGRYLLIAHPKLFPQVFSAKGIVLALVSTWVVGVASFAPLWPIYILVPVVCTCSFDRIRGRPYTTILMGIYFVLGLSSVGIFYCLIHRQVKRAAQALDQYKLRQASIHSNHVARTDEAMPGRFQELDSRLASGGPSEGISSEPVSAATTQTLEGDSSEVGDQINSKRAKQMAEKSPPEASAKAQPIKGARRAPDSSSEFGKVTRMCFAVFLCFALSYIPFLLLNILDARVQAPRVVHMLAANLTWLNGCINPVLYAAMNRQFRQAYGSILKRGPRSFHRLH
row,pIC50,SMILES
1,7.00 to 11.00,"O=c1nc(OCC2CCCO2)cc2n1CCc1cc(OCc3cccc(Cl)c3)ccc1-2 (stereo not shown) [compound 22, 9-(3-chloro-benzyloxy)-2-(tetrahydro-furan-2-ylmethoxy)-6,7-dihydro-pyrimido[6,1-a]isoquinolin-4-one]"
2,6.30 to 7.00,"NC(=O)c1ccc(-c2ccc3c(c2)CCn2c-3cc(OCC3CCCO3)nc2=O)cc1 (stereo not shown) [compound 106, 4-[4-oxo-2-(tetrahydro-furan-2-ylmethoxy)-6,7-dihydro-4H-pyrimido[6,1-a]isoquinolin-9-yl]-benzamide]"
3,7.00 to 11.00,"O=c1nc(OCC2CCCO2)cc2n1CCc1cc(OCc3noc(-c4ccccc4)n3)ccc1-2 (stereo not shown) [compound 88, 9-(5-phenyl-[1,2,4]oxadiazol-3-ylmethoxy)-2-(tetrahydro-furan-2-ylmethoxy)-6,7-dihydro-pyrimido[6,1-a]isoquinolin-4-one]"
4,7.00 to 11.00,"O=c1nc(OCC2CCCO2)cc2n1CCc1cc(OCc3ccc([N+](=O)[O-])cc3)ccc1-2 (stereo not shown) [compound 33, 9-(4-nitro-benzyloxy)-2-(tetrahydro-furan-2-ylmethoxy)-6,7-dihydro-pyrimido[6,1-a]isoquinolin-4-one]"
5,6.00 to 6.30,"O=C(O)c1cccc(-c2ccc3c(c2)CCn2c-3cc(OCC3CCCO3)nc2=O)c1 (stereo not shown) [compound 103, 3-[4-oxo-2-(tetrahydro-furan-2-ylmethoxy)-6,7-dihydro-4H-pyrimido[6,1-a]isoquinolin-9-yl]-benzoic acid]"
6,7.00 to 11.00,"O=c1nc(OCC2CCCO2)cc2n1CCc1cc(OCc3ccc4ccccc4c3)ccc1-2 (stereo not shown) [compound 37, 9-(naphthalen-2-ylmethoxy)-2-(tetrahydro-furan-2-ylmethoxy)-6,7-dihydro-pyrimido[6,1-a]isoquinolin-4-one]"
7,7.00 to 11.00,"CC(C)(C)c1nc(COc2ccc3c(c2)CCn2c-3cc(OCC3COc4ncccc4O3)nc2=O)no1 (stereo not shown) [compound 158, 9-(5-tert-Butyl-[1,2,4]oxadiazol-3-ylmethoxy)-2-(2,3-dihydro-[1,4]dioxino[2,3-b]pyridin-2-ylmethoxy)-6,7-dihydro-pyrimido[6,1-a]isoquinolin-4-one]"
8,7.00 to 11.00,"COc1ccccc1OCCOc1ccc2c(c1)CCn1c-2cc(OCC2CCCO2)nc1=O (stereo not shown) [compound 40, 9-[2-(2-methoxy-phenoxy)-ethoxy]-2-(tetrahydro-furan-2-ylmethoxy)-6,7-dihydro-pyrimido[6,1-a]isoquinolin-4-one]"
9,7.00 to 11.00,"COC(=O)c1cccc(COc2ccc3c(c2)CCn2c-3cc(OCC3CCCO3)nc2=O)c1 (stereo not shown) [compound 27, 3-[4-oxo-2-(tetrahydro-furan-2-ylmethoxy)-6,7-dihydro-4H-pyrimido[6,1-a]isoquinolin-9-yloxymethyl]-benzoic acid methyl ester]"
10,6.30 to 7.00,"O=c1nc(OCC2CCCO2)cc2n1CCc1cc(OCc3ccccc3Cl)ccc1-2 (stereo not shown) [compound 23, 9-(2-chloro-benzyloxy)-2-(tetrahydro-furan-2-ylmethoxy)-6,7-dihydro-pyrimido[6,1-a]isoquinolin-4-one]"
11,6.30 to 7.00,"O=c1nc(OCC2CCCO2)cc2n1CCc1cc(-c3ccccc3)ccc1-2 (stereo not shown) [compound 96, 9-phenyl-2-(tetrahydro-furan-2-ylmethoxy)-6,7-dihydro-pyrimido[6,1-a]isoquinolin-4-one]"
12,6.30 to 7.00,"O=c1nc(OCC2CCCO2)cc2n1CCc1cc(OCc3ccc(F)cc3)ccc1-2 (stereo not shown) [compound 24, 9-(4-fluoro-benzyloxy)-2-(tetrahydro-furan-2-ylmethoxy)-6,7-dihydro-pyrimido[6,1-a]isoquinolin-4-one]"
13,6.30 to 7.00,"O=c1nc(OCC2CCCO2)cc2n1CCc1cc(OCc3ccncc3)ccc1-2 (stereo not shown) [compound 13, 9-(pyridin-4-ylmethoxy)-2-(tetrahydro-furan-2-ylmethoxy)-6,7-dihydro-pyrimido[6,1-a]isoquinolin-4-one]"
14,7.00 to 11.00,"Cc1ccccc1COc1ccc2c(c1)CCn1c-2cc(OCC2CCCO2)nc1=O (stereo not shown) [compound 39, 9-(2-methyl-benzyloxy)-2-(tetrahydro-furan-2-ylmethoxy)-6,7-dihydro-pyrimido[6,1-a]isoquinolin-4-one]"
15,6.30 to 7.00,"N#Cc1cccc(COc2ccc3c(c2)CCn2c-3cc(OCC3CCCO3)nc2=O)c1 (stereo not shown) [compound 19, 3-[4-oxo-2-(tetrahydro-furan-2-ylmethoxy)-6,7-dihydro-4H-pyrimido[6,1-a]isoquinolin-9-yloxymethyl]-benzonitrile]"
16,7.00 to 11.00,"O=c1nc(OCC2CCCO2)cc2n1CCc1cc(OCCOc3ccccc3Cl)ccc1-2 (stereo not shown) [compound 43, 9-[2-(2-chloro-phenoxy)-ethoxy]-2-(tetrahydro-furan-2-ylmethoxy)-6,7-dihydro-pyrimido[6,1-a]isoquinolin-4-one]"

# Further lines, the compound ahead of its results:
row,SMILES,pIC50
1,"CC(C)C1CC(COc2cc3n(c(=O)n2)CCc2cc(C#CC4CC4)ccc2-3)O1 (stereo not shown) [compound 203, 9-cyclopropylethynyl-2-(4-isopropyl-oxetan-2-ylmethoxy)-6,7-dihydro-pyrimido[6,1-a]isoquinolin-4-one]",6.00 to 6.30
2,"NC(=O)NCC#Cc1ccc2c(c1)CCn1c-2cc(OCC2COc3ncccc3O2)nc1=O (stereo not shown) [compound 175, {3-[2-(2,3-Dihydro-[1,4]dioxino[2,3-b]pyridin-2-ylmethoxy)-4-oxo-6,7-dihydro-4H-pyrimido[6,1-a]isoquinolin-9-yl]-prop-2-ynyl}-urea]",7.00 to 11.00
3,"O=c1nc(OCC2COc3ncccc3O2)cc2n1CCc1cc(C#CCN3CCS(=O)(=O)CC3)ccc1-2 (stereo not shown) [compound 174, 2-(2,3-dihydro-[1,4]dioxino[2,3-b]pyridin-2-ylmethoxy)-9-[3-(1,1-dioxo-thiomorpholin-4-yl)-prop-1-ynyl]-6,7-dihydro-pyrimido[6,1-a]isoquinolin-4-one]",6.30 to 7.00
4,"CN1CCCC1CCOc1ccc2c(c1)CCn1c-2cc(OCC2COc3ncccc3O2)nc1=O (stereo not shown) [compound 92, 2-(2,3-dihydro-[1,4]dioxino[2,3-b]pyridin-2-ylmethoxy)-9-[2-(1-methyl-pyrrolidin-2-yl)-ethoxy]-6,7-dihydro-pyrimido[6,1-a]isoquinolin-4-one]",6.30 to 7.00
5,"Cn1cc(-c2ccc3c(c2)CCn2c-3cc(OCC3COc4ncccc4O3)nc2=O)cn1 (stereo not shown) [compound 149, 2-(2,3-dihydro-[1,4]dioxino[2,3-b]pyridin-2-ylmethoxy)-9-(1-methyl-1H-pyrazol-4-yl)-6,7-dihydro-pyrimido[6,1-a]isoquinolin-4-one]",7.00 to 11.00
6,"N#CCOc1ccc2c(c1)CCn1c-2cc(OCC2COc3ccccc3O2)nc1=O (stereo not shown) [compound 72, [2-(2,3-dihydro-benzo[1,4]dioxin-2-ylmethoxy)-4-oxo-6,7-dihydro-4H-pyrimido[6,1-a]isoquinolin-9-yloxy]-acetonitrile]",7.00 to 11.00
7,"O=c1nc(OCC2COc3ccccc3O2)cc2n1CCc1cc(OCCN3CCCCC3)ccc1-2 (stereo not shown) [compound 80, 2-(2,3-dihydro-benzo[1,4]dioxin-2-ylmethoxy)-9-(2-piperidin-1-yl-ethoxy)-6,7-dihydro-pyrimido[6,1-a]isoquinolin-4-one]",6.30 to 7.00
8,"N#CCCOCC#Cc1ccc2c(c1)CCn1c-2cc(OCC2COc3ncccc3O2)nc1=O (stereo not shown) [compound 170, 3-{3-[2-(2,3-dihydro-[1,4]dioxino[2,3-b]pyridin-2-ylmethoxy)-4-oxo-6,7-dihydro-4H-pyrimido[6,1-a]isoquinolin-9-yl]-prop-2-ynyloxy}-propionitrile]",7.00 to 11.00
9,"N#Cc1ccc2c(c1)CCn1c-2cc(OCC2COc3ncccc3O2)nc1=O (stereo not shown) [compound 152, 2-(2,3-dihydro-[1,4]dioxino[2,3-b]pyridin-2-ylmethoxy)-4-oxo-6,7-dihydro-4H-pyrimido[6,1-a]isoquinoline-9-carbonitrile]",6.30 to 7.00
10,"CCCCn1nnnc1COc1ccc2c(c1)CCn1c-2cc(OCC2COc3ccccc3O2)nc1=O (stereo not shown) [compound 70, 9-(1-butyl-1H-tetrazol-5-ylmethoxy)-2-(2,3-dihydro-benzo[1,4]dioxin-2-ylmethoxy)-6,7-dihydro-pyrimido[6,1-a]isoquinolin-4-one]",7.00 to 11.00
11,"COc1ccc2c(c1)CCn1c-2cc(OCC2Cc3ccccc3O2)nc1=O (stereo not shown) [compound 5, 2-(2,3-dihydro-benzofuran-2-ylmethoxy)-9-methoxy-6,7-dihydro-pyrimido[6,1-a]isoquinolin-4-one]",6.00 to 6.30
12,"CCOc1ccc(-c2ccc3c(c2)CCn2c-3cc(OCC3COc4ncccc4O3)nc2=O)cn1 (stereo not shown) [compound 164, 2-(2,3-dihydro-[1,4]dioxino[2,3-b]pyridin-2-ylmethoxy)-9-(6-ethoxy-pyridin-3-yl)-6,7-dihydro-pyrimido[6,1-a]isoquinolin-4-one]",7.00 to 11.00
13,"COc1ccc(OC)c(-c2ccc3c(c2)CCn2c-3cc(OCC3COc4ncccc4O3)nc2=O)c1 (stereo not shown) [compound 168, 2-(2,3-dihydro-[1,4]dioxino[2,3-b]pyridin-2-ylmethoxy)-9-(2,5-dimethoxy-phenyl)-6,7-dihydro-pyrimido[6,1-a]isoquinolin-4-one]",7.00 to 11.00
14,"COc1cccc(-c2ccc3c(c2)CCn2c-3cc(OCC3COc4ncccc4O3)nc2=O)c1OC (stereo not shown) [compound 167, 2-(2,3-dihydro-[1,4]dioxino[2,3-b]pyridin-2-ylmethoxy)-9-(2,3-dimethoxy-phenyl)-6,7-dihydro-pyrimido[6,1-a]isoquinolin-4-one]",7.00 to 11.00
15,"CC(C)(C)OC(=O)COc1ccc2c(c1)CCn1c-2cc(OCC2COc3ccccc3O2)nc1=O (stereo not shown) [compound 29, [2-(2,3-dihydro-benzo[1,4]dioxin-2-ylmethoxy)-4-oxo-6,7-dihydro-4H-pyrimido[6,1-a]isoquinolin-9-yloxy]-acetic acid tert-butyl ester]",7.00 to 11.00
